{"source": "ChEMBL document CHEMBL4431396", "about": "“Novel Autotaxin Inhibitors for the Treatment of Osteoarthritis Pain: Lead Optimization via Structure-Based Drug Design” (ACS Med Chem Lett, 2016)", "assay_type_in_all_cases": "ADME, organism-based", "key": {"[1]": {"assay": "Half life in rat at 1 mg/kg, iv", "settings": "in vivo"}, "[2]": {"assay": "Volume of distribution at steady state in rat at 1 mg/kg, iv", "settings": "in vivo, read-out: Vdss"}, "[3]": {"assay": "Cmax in rat at 10 mg/kg, po administered as single dose", "design": "dose 10 mg/kg, route oral", "settings": "in vivo"}, "[4]": {"assay": "AUC in rat at 10 mg/kg, po administered as single dose", "settings": "in vivo"}, "[5]": {"assay": "Oral bioavailability in rat at 10 mg/kg administered as single dose", "settings": "in vivo"}, "Rattus norvegicus": {"test_system": "Rattus norvegicus", "assay": "Time duration for plasma concentration stays above in vitro IC80 level in rat at 10 mg/kg, po administered as single dose", "settings": "in vivo"}}, "data": [{"smiles": "O=C(COCCc1cnn[nH]1)N1Cc2cnc(NC3Cc4ccccc4C3)nc2C1", "values": [{"measurement": "half-life", "setting": "[1]", "value": 1.14, "unit": "h"}, {"measurement": "Vd", "setting": "[2]", "value": 1.4, "unit": "L/kg"}, {"measurement": "Cmax", "setting": "[3]", "value": 660, "unit": "nM"}, {"measurement": "AUC", "setting": "[4]", "value": 3.44, "unit": "µM·h"}, {"measurement": "bioavailability", "setting": "[5]", "value": 23, "unit": "%"}, {"measurement": "Time", "setting": "Rattus norvegicus", "value": "> 12", "unit": "h"}]}]}
